# Entries after “also recorded” stand apart in the source; their conditions may differ.
# Legend:
# [1] = tested on: E0771 mammary tumor cell line; test: E0771 mammary tumor challenge in mice treated with S-equol and/or anti-PD-1 antibody; format: in vivo, mouse; details: E0771 mammary tumor model, Example 14, four arms (FIG. 33A-B)
# Method: (§1) The following three murine mammary tumor lines were tested to determine the effects of a PD-1 inhibitor, S-equol and a combination of the two therapies on tumor growth: (1) E0771 (B6 background), (2) AT-3 (B6 background), and (3) 4T1 (BalbC background). This experimental design includes four arms (using AT-3 as an example): (1) controls, (2) αPD-1, (3) S-equol, and (4) αPD-1+S-equol (FIG. 3) by injecting into mice 2×10^5 cells subcutaneously into the 4th mammary gland fat pad. Antibodies were administered α-PD-1: 200 μg/mice by i.p. injection every 3 days and S-equol was administered at 50 mg/kg/day by oral gavage. Treatment began 7 day after tumor challenge. Tumor growth trajectories were compared within treated mice using a repeated measures linear mixed model. The primary outcome was the logarithm of the tumor size, and the test statistic is the treatment×time interaction. Tumors were measured about 10 times. The number of recipient mice use used in the studies (n=8 per group) was based on the above study.
# For tumor studies, 8 to 10-week-old mice were used. M-Wnt (5 Å˜10^5 cells), E0771 (5 Å˜10^5 cells), AT-3 (2 Å˜10^5 cells), and EMT-6 (5 Å˜10^5 cells) tumor cells were subcutaneously inoculated into the fourth mammary pad. […] Tumor volume was measured with calipers (0.5 Å˜length Å˜width2) on the indicated days. […]
# [2] = tested on: AT3 mammary tumor cell line; test: AT3 mammary tumor challenge in mice treated with S-equol and/or anti-PD-1 antibody; format: in vivo, mouse
# Method: as §1
# For tumor studies, 8 to 10-week-old mice were used. M-Wnt (5 Å˜10^5 cells), E0771 (5 Å˜10^5 cells), AT-3 (2 Å˜10^5 cells), and EMT-6 (5 Å˜10^5 cells) tumor cells were subcutaneously inoculated into the fourth mammary pad. B16F10 (0.5 Å˜10^6 cells) and MC38 (5 Å˜10^6 cells) tumor cells were subcutaneously inoculated into the back flank. Tumor volume was measured with calipers (0.5 Å˜length Å˜width2) on the indicated days. Anti-IgG2a (BioXcell, Cat: #BE0146) and anti-PD-1 (BioXcell, Cat: #BE0089) antibodies were administered through intraperitoneal (i.p.) injection at a dose of […] every 3 days starting on day 7 after tumor challenge for the duration as indicated. S-equol (from Ausio Pharmaceuticals) was administered daily by oral gavage at 50 mg/kg beginning on the day of tumor challenge and continuing throughout the entire tumor growth experiments.
# [3] = molecular target: T1, ERβ pY36 (Homo sapiens, UniProt Q92731); test: pY36-specific phosphorylation signal of ERβ in MDA-MB-231 cells; format: cell-based; details: MDA-MB-231 cells (FIG. 16A)
# T1 construct: host or cells: MDA-MB-231 (human TNBC cell line)
# Source text: FIG. 16. […] See, Yuan et al. (2016) listed below, which is incorporated by reference herein for all purposes.
# [4] = tested on: TNBC; test: Pilot biomarker clinical study of S-equol in TNBC (Example 12); format: in vivo, human
# Method: A pilot biomarker clinical study was performed in 20 subjects with documented TNBC to determine the effect of the ERβ agonist S-equol on Ki67 an indicator of tumor cell proliferation. Tumor cell proliferation was measured by immunohistological staining for Ki-67. See, FIG. 18 for the outline of the protocol. Ki-67 is encoded by the gene MKI67 gene and is required to maintain individual mitotic chromosomes dispersed in the cytoplasm following nuclear envelope disassembly. Measuring the fraction of Ki-67-positive cells in a tumor is known to be a reliable parameter for assessing cancer patient prognosis. Subjects with TNBC are known to have very high levels of Ki67.
# Patients enrolled in the study received a history, physical, laboratory assessment, radiological imaging, and diagnostic biopsies. Immunohistochemistry (IHC) of Ki67 (proliferation marker), total ERβ, and pY36-ERβ (phosphorylated ERβ, B7H1 (also known as PDL-1) and BRCA1 (breast cancer 1, early onset) were conducted using core needle biopsy tissue samples prior to treatment. Patients were given oral S-equol 50 mg, twice daily for approximately two weeks (10-21 days) prior to the scheduled oncologic surgeries or start of primary systemic therapy. Tumor samples were obtained from the surgery or the two-week repeat core needle biopsy. Post-treatment IHC evaluation of Ki67, total ERβ, phosphorylated ERβ (pY36) and BRCA1 were obtained. Ki67 reduction is a validated surrogate marker of both short and long term hormonal therapy efficacy in trials of human breast cancer and was compared pre- and post-treatment with S-equol. […] A c-DNA microarray platform was also used to discover downstream transcriptional targets of ERβ resulting from activation by S-equol.
# Women eligible for the study had newly diagnosed, previously untreated, triple negative breast cancer, with an intact primary breast tumor of any size. All stages of the disease were eligible. They took S-equol during the time they underwent standard preoperative evaluation or pre-therapeutic work-up for advanced disease, such as staging procedures or central line placement. If primary surgery was performed, tissue leftover after standard diagnostic evaluation was used for the two-week biomarker assessment. […] See, FIG. 10.
# A standard procedure for acquiring core biopsy with a Bard 14-gauge needle was utilized for determining TNBC prior to enrollment. Whenever possible, the tumor tissues used for IHC analyses were acquired at the same time as the diagnostic core biopsy. The tissue samples were sent for staining of total and pY36 ERβ and Ki67, and analyzed. Testing for ERα, PR, and HER-2 was performed using validated methods. TNBC tumors were defined as less than 5% nuclear staining of carcinoma cells for ERα and PR and either 0, 1, or 2+ staining for HER-2 by IHC. Whole-Genome DASL HT platform from Illumina, which is designed for gene expression profiling with extremely low input of RNA (50 pg), was used to interrogate paired FFPE tissue obtained before and after exposure to S-equol.
# The primary analysis estimated the geometric mean change of the Ki67 expression from baseline to two weeks. This was performed using a one-sample t-test of the pre/post differences in the log-transformed data, and summarized by the 95% confidence interval. […]
# [5] = of 17 evaluable patients, S-equol 50 mg twice daily 10-21 days
# T1 sequence (Q92731 whole entry): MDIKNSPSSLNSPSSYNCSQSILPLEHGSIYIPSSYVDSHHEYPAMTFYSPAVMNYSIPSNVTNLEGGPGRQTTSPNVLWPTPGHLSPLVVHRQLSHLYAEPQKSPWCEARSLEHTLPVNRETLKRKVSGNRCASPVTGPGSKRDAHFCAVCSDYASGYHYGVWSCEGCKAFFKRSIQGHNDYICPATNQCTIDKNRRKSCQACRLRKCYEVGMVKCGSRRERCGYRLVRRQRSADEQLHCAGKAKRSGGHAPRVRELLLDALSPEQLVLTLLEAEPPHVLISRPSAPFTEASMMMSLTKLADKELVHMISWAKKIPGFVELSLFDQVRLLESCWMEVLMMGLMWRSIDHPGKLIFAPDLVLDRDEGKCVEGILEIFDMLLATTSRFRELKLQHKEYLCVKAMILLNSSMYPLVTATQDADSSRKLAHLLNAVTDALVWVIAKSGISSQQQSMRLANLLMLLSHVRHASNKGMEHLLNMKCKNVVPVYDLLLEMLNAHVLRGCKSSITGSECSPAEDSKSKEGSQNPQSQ
compound,measurement,setting,value
Oc1ccc([C@H]2COc3cc(O)ccc3C2)cc1 [S-equol],tumor response (volume and weight),[1],responded
same,tumor weight,[2]; AT3 (FIG. 12B),reduce tumor weight compared to control
same,tumor size,"[2]; AT3, excised tumors (FIG. 12C)",reduce tumor size compared to control
same,tumor volume,"[2]; AT3, anti-PD-1 200 μg every 3 days, S-equol 50 mg/kg per day, over 35 days post-challenge (FIG. 12A)",reduce tumor volume compared to control
same,pY36-specific phosphorylation signal,[3],enhanced
same,change in Ki67 pre- vs post-treatment (in words),"[4]; TNBC patients, oral S-equol 50 mg twice daily for 10-21 days",measurable decrease in Ki67; also recorded: measurable decline in Ki67
same,patients with 0-20% reduction in Ki-67,[4]; [5],7 patients
same,patients with greater than 20% reduction in Ki-67,[4]; [5],one
same,patients with greater than 30% reduction in Ki-67,[4]; [5],4 patients
same,patients with no reduction in Ki-67,[4]; [5],5 patients
